Measurements from US4877746A, “Methods of carrying out assays for lipoproteins and apolipoproteins” (Pharmacia AB, priority 1985, dated 1989).
Where a name gives a salt, the structure may show the parent alone.

How the values were obtained:
apo(a) = experiment: Immunoassay (sandwich, mouse antiapo(a) 125I) of apo(a) in serum after pretreatment at acidic and alkaline pH; type: binding; settings: for apo(a) concentration read off after acidic pretreatment: acidic pH, 20 h; for apo(a) concentration read off after acidic pretreatment / apo(a) concentration read off after alkaline pretreatment: 1:1 with serum, RT; for apo(a) concentration read off after alkaline pretreatment: alkaline pH
Description: (a) Alkaline pH. Equal volumes of serum and 0.13 M NaOH were mixed and incubated at room temperature (=RT) for 2 hours, whereupon phosphate buffer I was added up to an 18-fold dilution of the sample.
(b) Acidic pH. Equal volumes of serum and 0.2 M HCl were mixed and incubated at RT for 20 hours, whereupon phosphate buffer I was added up to an 18-fold dilution of the sample.
(c) Alkaline buffer system. Equal volumes of serum and 0.2 M trisodium phosphate were mixed and incubated at RT for 1 hour, whereupon phosphate buffer I was added up to an 18-fold dilution of the sample.
(§1) 50 μl from the reaction mixture of step 1 was diluted according to the dilution scheme 1/18-1/54-1/162-[…]-1/1458-1/4374. Each dilution was mixed with 50 μl of mouse antiapo(a) ^125 I and incubated for 1 hour at RT, whereupon 50 μl of goat antiapo(a) was added. The reaction mixture was kept standing for 0.5 hours at RT. This was followed by precipitation of the resultant complex with the aid of solid-phase-bound anti-antibodies (2 ml Decanting Suspension, 0.5 hr and RT). The suspension was centrifuged, the supernatant then being removed by decantation and discarded.
In separation experiments goat antiapo(a) was replaced with sheep antiapo(a) and monoclonal antiapo(a). These antibodies were tested in soluble as well as in solid-phase-bound form. Decanting suspension was excluded when solid-phase-bound antiapo(a)s were used.

Lp(a) = experiment: Sandwich immunoassay (method 1.2) of serum after prior art delipidating pretreatment, tracer uptake; type: binding
Description: as §1
Equal volumes of serum and pretreating solution were mixed and incubated for 2-16 hours, whereupon the sample was diluted 20-fold with phosphate buffer I. The testing method according to 1.2 was then applied to the reaction solutions. […]
The results are presented as % binding of total amount of tracer added

[1] = dilution 1/20, first concentration: SDS 0.5%, urea 4 M, guanidine HCl 2 M, Triton 2%, Renex 1%, lipase 500 U/l
[2] = dilution 1/20, second concentration: SDS 2.5%, urea 6 M, guanidine HCl 6 M, Triton 10%, Renex 5%, lipase 100 U/l
[3] = dilution 1/60, first concentration: SDS 0.5%, urea 4 M, guanidine HCl 2 M, Triton 2%, Renex 1%, lipase 500 U/l
[4] = dilution 1/60, second concentration: SDS 2.5%, urea 6 M, guanidine HCl 6 M, Triton 10%, Renex 5%, lipase 100 U/l
[5] = dilution 1/180, first concentration: SDS 0.5%, urea 4 M, guanidine HCl 2 M, Triton 2%, Renex 1%, lipase 500 U/l
[6] = dilution 1/180, second concentration: SDS 2.5%, urea 6 M, guanidine HCl 6 M, Triton 10%, Renex 5%, lipase 100 U/l
[7] = dilution 1/540, first concentration: SDS 0.5%, urea 4 M, guanidine HCl 2 M, Triton 2%, Renex 1%, lipase 500 U/l
[8] = dilution 1/540, second concentration: SDS 2.5%, urea 6 M, guanidine HCl 6 M, Triton 10%, Renex 5%, lipase 100 U/l

Structure (SMILES)	apo(a) concentration read off after acidic pretreatment (apo(a); 0.2 M pretreating solution) [U/l]	% binding of total amount of tracer added (uptake) (Lp(a); [1]) [%]	% binding of total amount of tracer added (uptake) (Lp(a); [2]) [%]	% binding of total amount of tracer added (uptake) (Lp(a); [3]) [%]	% binding of total amount of tracer added (uptake) (Lp(a); [4]) [%]	% binding of total amount of tracer added (uptake) (Lp(a); [5]) [%]	% binding of total amount of tracer added (uptake) (Lp(a); [6]) [%]	% binding of total amount of tracer added (uptake) (Lp(a); [7]) [%]	% binding of total amount of tracer added (uptake) (Lp(a); [8]) [%]	also measured
O=P(O)(O)O [H3 PO4]	28.4	–	–	–	–	–	–	–	–	–
[Na+].[OH-] [NaOH, sodium hydroxide]	–	–	–	–	–	–	–	–	–	uptake on increased treatment time (apo(a); 0.13 M NaOH, longer treatment time, given dilution): the uptake was lowered; apo(a) concentration read off after alkaline pretreatment (apo(a); 0.13 M pretreating solution, 2 h): 333 U/l; effectiveness of pretreatment (apo(a); sodium hydroxide solution versus hydrochloric acid solution): far more effective than a hydrochloric acid solution
O=C(O)CC(O)(CC(=O)O)C(=O)O [citric acid]	25.2	–	–	–	–	–	–	–	–	–
Cl [HCl, hydrochloric acid]	41.0	–	–	–	–	–	–	–	–	–
O=P([O-])([O-])[O-].[Na+].[Na+].[Na+] [Na3 PO4, trisodium phosphate]	–	–	–	–	–	–	–	–	–	apo(a) concentration read off after alkaline pretreatment (apo(a); 0.2 M pretreating solution, 1 h): 354 U/l
N=C(N)N [GUANIDINE HCl, Guanidine - HCl]	–	10.0	10.7	5.6	6.3	3.6	4.1	3.1	3.3	–
CCCCCCCCCCCCOS(=O)(=O)[O-].[Na+] [SDS, sodium dodecyl sulfate]	–	10.1	18.8	5.3	13.3	3.6	7.0	3.0	4.5	–
NC(N)=O [UREA, Urea]	–	10.0	9.6	5.4	5.3	3.6	3.8	3.2	3.1	–
